Source: patent US9113629B2, “4-amino-6-(4-substituted-phenyl)-picolinates and 6-amino-2-(4-substituted-phenyl)-pyrimidine-4-carboxylates and their use as herbicides” (DOW AGROSCIENCES LLC, priority 2013, dated 2015)
Where two headings read alike, the source gives them in different places.

Legend:
[1] = tested on: Key Broadleaf Weed and Crop Species; experiment: Post-emergent Test II herbicidal activity (Table 5); assay type: in vivo; details: post-emergence, 336 h, 14 days after application; for pest or weed control at 70 g/ha: application rate 70 g ai/ha; for pest or weed control at 140 g/ha: application rate 140 g ai/ha
In short: (§1)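 Greenhouse post-emergent assay: seedlings (first/second true leaf) in Metro-Mix 360 were sprayed at 187 L/ha at a top rate plus twofold dilutions down to 1/16×; solvent-blank controls were included. Percent visual injury was read at 14 d.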

[2] = tested on: Key Grass and Sedge Weeds as well as Grass Crops; experiment: Post-emergent Test II herbicidal activity (Table 6); assay type: in vivo; details: post-emergence, 336 h; for pest or weed control at 70 g/ha: 70 g ai/ha; for pest or weed control at 140 g/ha: 140 g ai/ha
In short: as §1

[3] = ABUTH: velvetleaf (Abutilon theophrasti), read-out: Visual Growth Reduction (%) 14 Days After Application, ABUTH
[4] = AMARE: redroot pigweed (Amaranthus retroflexus), read-out: Visual Growth Reduction (%) 14 Days After Application, AMARE
[5] = BRSNN: oilseed-rape, canola (Brassica napus), read-out: Visual Growth Reduction (%) 14 Days After Application, BRSNN
[6] = CHEAL: lambsquarters (Chenopodium album), read-out: Visual Growth Reduction (%) 14 Days After Application, CHEAL
[7] = EPHHL: wild poinsettia (Euphorbia heterophylla), read-out: Visual Growth Reduction (%) 14 Days After Application, EPHHL
[8] = HELAN: sunflower (Helianthus annuus), read-out: Visual Growth Reduction (%) 14 Days After Application, HELAN
[9] = VIOTR: wild pansy (Viola tricolor), read-out: Visual Growth Reduction (%) 14 Days After Application, VIOTR
[10] = CYPES: yellow nutsedge (Cyperus esculentus), read-out: Visual Growth Reduction (%) 14 Days After Application, CYPES
[11] = DIGSA: crabgrass (Digitaria sanguinalis), read-out: Visual Growth Reduction (%) 14 Days After Application, DIGSA
[12] = ECHCG: barnyardgrass (Echinochloa crus-galli), read-out: Visual Growth Reduction (%) 14 Days After Application, ECHCG
[13] = ORYSA: rice (Oryza sativa), crop, read-out: Visual Growth Reduction (%) 14 Days After Application, ORYSA
[14] = SETFA: giant foxtail (Setaria faberi), read-out: Visual Growth Reduction (%) 14 Days After Application, SETFA
[15] = SORVU: grain sorghum (Sorghum vulgare), read-out: Visual Growth Reduction (%) 14 Days After Application, SORVU
[16] = TRZSS (wheat, Triticum aestivum), crop, read-out: Visual Growth Reduction (%) 14 Days After Application, TRZSS
[17] = ZEAMX: maize, corn (Zea mays), crop, read-out: Visual Growth Reduction (%) 14 Days After Application, ZEAMX

COC(=O)c1nc(-c2ccc(OC(F)F)cc2)c(F)c(N)c1Cl [Compound 85] gave a pest or weed control at 70 g/ha [1, 3] of 95 to 100%, a pest or weed control at 140 g/ha [1, 3] of 95 to 100% and a pest or weed control at 70 g/ha [1, 4] of 95 to 100%. The pest or weed control at 140 g/ha [1, 4] was 95 to 100%, the pest or weed control at 70 g/ha [1, 5] was 45 to 59% and the pest or weed control at 140 g/ha [1, 5] was 60 to 74%. For the same compound, the pest or weed control at 70 g/ha [1, 6] was 85 to 94%, the pest or weed control at 140 g/ha [1, 6] was 95 to 100% and the pest or weed control at 70 g/ha [1, 7] was 95 to 100%. For the same compound, the pest or weed control at 140 g/ha [1, 7] was 95 to 100%, the pest or weed control at 70 g/ha [1, 8] was 85 to 94% and the pest or weed control at 140 g/ha [1, 8] was 95 to 100%. The pest or weed control at 70 g/ha [1, 9] was 0 to 29%, the pest or weed control at 140 g/ha [1, 9] was 0 to 29% and the pest or weed control at 70 g/ha [2, 10] was 85 to 94%. It also gave a pest or weed control at 140 g/ha [2, 10] of 85 to 94%, a pest or weed control at 70 g/ha [2, 11] of 30 to 44% and a pest or weed control at 140 g/ha [2, 11] of 30 to 44%. It also gave a pest or weed control at 70 g/ha [2, 12] of 95 to 100%, a pest or weed control at 140 g/ha [2, 12] of 95 to 100% and a pest or weed control at 70 g/ha [2, 13] of 0 to 29%. It also gave a pest or weed control at 140 g/ha [2, 13] of 0 to 29%, a pest or weed control at 70 g/ha [2, 14] of 45 to 59% and a pest or weed control at 140 g/ha [2, 14] of 75 to 84%. It also gave a pest or weed control at 70 g/ha [2, 15] of 75 to 84%, a pest or weed control at 140 g/ha [2, 15] of 85 to 94% and a pest or weed control at 70 g/ha [2, 16] of 30 to 44%. The pest or weed control at 140 g/ha [2, 16] was 30 to 44%, the pest or weed control at 70 g/ha [2, 17] was 75 to 84% and the pest or weed control at 140 g/ha [2, 17] was 75 to 84%.
